This is an account of results in US20120129769A1, “ORALLY ADMINISTERABLE PHARMACEUTICAL PREPARATION CONTAINING INSULIN” (priority 2009, published 2012).

The nature of data set [1]: Blood sugar after oral (feeding probe) insulin with or without ε-amino-caproic acid in starved rats (Example 1). The class given is in vivo, Male Wistar rats. The settings on record: n=4. How it is done: (§1) Male Wistar rats (Charles-River Laboratories, Budapest, Hungary) were used for the experiments. Before the experiment the animals were starved for 16 hours. The experiments started between 8 and 9 h in the morning. 2×6 groups were formed in a random manner, with 4 animals by group. The animals were pretreated through a feeding probe according to the followings: group 1: with 1 g/kg of ε-amino-caproic acid; group 2: with 0.1 U/kg of insulin; group 3: with 0.1 U/kg of insulin and 1 g/kg of ε-amino-caproic acid; group 4: with 1.0 U/kg of insulin; group 5: with 1.0 U/kg of insulin and 1 g/kg of ε-amino-caproic acid; and group 6: with a solvent.

A short description of data set [2]: Blood sugar (glucose oxidase method) after intraduodenal insulin-acepramin mixture with standard casein (Example 2). The settings on record: mean±S.D., n=8. The class given is in vivo, male Wistar rats. From the text:
(§2) Data: mean±S.D. with n=8 by group. Statistics: t-test with Bonferroni correction, after ANOVA.

Data set [3] can be described thus: Plasma insulin immunoreactivity (radioimmunoassay) after intraduodenal insulin-acepramin mixture with standard casein (Example 2). Particulars: mean±S.D., n=8. How it is done:
Healthy male Wistar rats (230-250 g) were given an ε-amino-caproic acid—human recombinant insulin mixture with standard casein intraduodenally. The endpoint of the measurement was the blood sugar measured with the glucose oxidase method, and the plasma insulin immunoreactivity measured with radioimmunoassay 15 and 60 minutes after the administration of the insulin-acepramin formulation (aqueous suspension).
as §2

The target of a further data set is α-chymotrypsin (Bos taurus, UniProt P00766). Nature of the data set: In vitro stability of insulin in the presence of a protein degrading enzyme (reverse-phase HPLC). Particulars: after 120 minutes; insulin 100 μM, α-chymotrypsin 1.5 μg/10 μl; FIG. 1. The class given is in vitro ADME. On the procedure:
FIG. 1: Insulin (100 μM; native) stability in the presence of an equivalent quantity of insulin/ε-amino-caproic acid (acepramin, Sigma, MO) in a solution containing α-chymotrypsin (1.5 μg/10 μl).
In vitro stability means the biodegradation of a primitive formulation of the insulin-acepramin mixture in the presence of a protein degrading enzyme, as compared to native insulin (results of reverse-phase HPLC tests).

The nature of data set [4]: Plasma insulin after oral (feeding probe) insulin with or without ε-amino-caproic acid in starved rats (Example 1). Particulars: n=4. The class given is in vivo, Male Wistar rats. How it is done: as §1
Setting [5] is: 15-minute values, insulin 0.1 IU/kg (combination: + 1 g/kg ε-amino-caproic acid).
The mark [6] stands for this setting: 15-minute values, insulin 1.0 IU/kg (combination: + 1 g/kg ε-amino-caproic acid).
The mark [7] stands for this setting: 60-minute values, insulin 0.1 IU/kg (combination: + 1 g/kg ε-amino-caproic acid).
The mark [8] stands for this setting: 60-minute values, insulin 1.0 IU/kg (combination: + 1 g/kg ε-amino-caproic acid).

On to `NCCCCCC(=O)O` [ε-amino-caproic acid, reference compound], for which the Blood sugar in data set [1] (15-minute values, 1 g/kg ε-amino-caproic acid alone) was determined as 5.43 ± 0.55 mmol/L; in data set [1] (60-minute values, 1 g/kg ε-amino-caproic acid alone) it was 5.37 ± 0.15 mmol/L; in data set [2] (15th minute, 100 mg/kg ε-amino-caproic acid alone) it was 6.9 ± 1.41 mmol/L; in data set [2] (60th minute, 100 mg/kg ε-amino-caproic acid alone), 7.3 ± 0.95 mmol/L.
“insulin: biotechnologically produced human recombinant insulin, given alone (native, unformulated)”: the Plasma insulin in data set [3] (15th minute, insulin 0.1 IU/kg (combination: + 100 mg/kg Acepramin)) was found to be 14.4 ± 1.51 μU/ml; in data set [3] (15th minute, insulin 1.0 IU/kg (combination: + 100 mg/kg ε-amino-caproic acid)), 27.5 ± 3.95 μU/ml; in data set [3] (60th minute, insulin 0.1 IU/kg (combination: + 100 mg/kg ε-amino-caproic acid)), 17.3 ± 2.94 μU/ml; in data set [3] (60th minute, insulin 1.0 IU/kg (combination: + 100 mg/kg ε-amino-caproic acid)), 17.1 ± 2.06 μU/ml; in data set [4] (setting [5]), 10.75 ± 2.21 μU/ml; in data set [4] (setting [6]), 38.25 ± 6.95 μU/ml. For the same compound, the figures for the Plasma insulin in data set [4] (setting [7]) and in data set [4] (setting [8]) were 10.8 ± 1.68 μU/ml and 23.87 ± 4.05 μU/ml, respectively. In addition, the Blood sugar came to 5.96 ± 0.21 mmol/L in data set [1] (setting [5]); 5.77 ± 0.22 mmol/L in data set [1] (setting [6]); 4.97 ± 0.40 mmol/L in data set [1] (setting [7]); 4.67 ± 0.41 mmol/L in data set [1] (setting [8]); 7.9 ± 0.92 mmol/L in data set [2] (15th minute, insulin 0.1 IU/kg (combination: + 100 mg/kg Acepramin), standard casein); 7.7 ± 2.31 mmol/L in data set [2] (15th minute, insulin 1.0 IU/kg (combination: + 100 mg/kg ε-amino-caproic acid), standard casein). The Blood sugar in data set [2] (60th minute, insulin 0.1 IU/kg (combination: + 100 mg/kg ε-amino-caproic acid), standard casein) was found to be 7.9 ± 0.83 mmol/L; in data set [2] (60th minute, insulin 1.0 IU/kg (combination: + 100 mg/kg ε-amino-caproic acid), standard casein), 6.9 ± 0.62 mmol/L. In the data set with α-chymotrypsin, the insulin degraded result is “more than 80%”.
